Assay results from ChEMBL document CHEMBL1201862, “PubChem BioAssay data set” (2004).
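Protocol summary: plate cells (96-well), add compound at 5 concentrations, incubate 48 h, interpolate endpoints linearly. The concentration for 50% growth inhibition is given as GI50.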 Activity calls are given as the source filed them. Cut-off read from the data, not from the text of the source: active = GI50 up to about 1.1 µM and inactive = higher.

How the values were obtained:
Assay in all cases: NCI-60 cell line screen, 48 h
[1] = tested on: CCRF-CEM
[2] = tested on: COLO 205
[3] = tested on: DU-145
[4] = tested on: HL-60
[5] = tested on: Hs-578T
[6] = tested on: IGROV-1
[7] = tested on: KM12
[8] = tested on: LOX IMVI
[9] = tested on: MDA-MB-231
[10] = tested on: MDA-MB-435
[11] = tested on: Malme-3M
[12] = tested on: NCI-H226
[13] = tested on: OVCAR-3
[14] = tested on: OVCAR-5
[15] = tested on: OVCAR-8
[16] = tested on: RXF 393
[17] = tested on: SK-OV-3
[18] = tested on: SNB-75
[19] = tested on: T47D
[20] = tested on: TK-10

Measured: GI50

O=C(CCN1CCCCC1)Nc1ccc2c(c1)C(=O)c1ccc(NC(=O)CCN3CCCCC3)cc1C2=O
inactive: [1] 2.37 µM | [2] 10.9 µM | [3] 14 µM | [4] 2.79 µM | [5] 11.7 µM | [6] 3.61 µM | [7] 1.62 µM | [8] 1.75 µM | [9] 2.04 µM | [10] 1.82 µM | [11] 10.5 µM | [12] 15.6 µM | [13] 8.11 µM | [14] 16.5 µM | [15] 5.57 µM | [16] 3.85 µM | [17] 13.2 µM | [18] 3.82 µM | [19] 16.5 µM | [20] 8.34 µM

NC(=O)c1nnsc1NC=O
inactive: [1] > 100 µM | [2] > 100 µM | [3] > 100 µM | [4] > 100 µM | [5] > 100 µM | [6] > 100 µM | [7] > 100 µM | [8] > 100 µM | [9] > 100 µM | [10] > 100 µM | [11] > 100 µM | [12] > 100 µM | [14] > 100 µM | [15] > 100 µM | [16] > 100 µM | [17] > 100 µM | [18] > 100 µM | [19] > 100 µM

COc1ccc(CCNC(=O)Cc2cc(OC)c(OC)cc2CO)cc1OC
inactive: [1] > 100 µM | [2] > 100 µM | [3] > 100 µM | [4] > 100 µM | [5] > 100 µM | [6] > 100 µM | [7] > 100 µM | [8] > 100 µM | [9] > 100 µM | [10] > 100 µM | [12] > 100 µM | [13] > 100 µM | [14] > 100 µM | [15] > 100 µM | [16] > 100 µM | [17] > 100 µM | [18] > 100 µM | [19] > 100 µM | [20] > 100 µM

Cc1nc2ccc(S(=O)(=O)O)cc2c(=O)n1-c1ccc(C(=O)NN2C(=O)C(Cl)C2c2ccccc2O)cc1 (stereo unspecified)
inactive: [1] > 100 µM | [2] > 100 µM | [3] > 100 µM | [4] > 100 µM | [5] > 100 µM | [6] > 100 µM | [7] > 100 µM | [8] > 100 µM | [9] > 100 µM | [10] > 100 µM | [11] > 100 µM | [12] > 100 µM | [13] > 100 µM | [14] > 100 µM | [15] > 100 µM | [16] > 100 µM | [17] > 100 µM | [18] > 100 µM | [19] > 100 µM | [20] > 100 µM

CCOC(=O)/C(=C\NC(=S)Nc1ccc(OCC)cc1)C(=O)c1ccccc1
inactive: [1] > 100 µM | [2] > 100 µM | [3] > 100 µM | [4] > 100 µM | [5] 57.9 µM | [6] > 100 µM | [7] > 100 µM | [8] > 100 µM | [9] > 100 µM | [10] > 100 µM | [11] > 100 µM | [12] > 100 µM | [13] > 100 µM | [14] > 100 µM | [15] > 100 µM | [16] > 100 µM | [17] > 100 µM | [18] 44.2 µM | [19] 24 µM

CC(=O)N1CCN(CCCCN2c3ccccc3Sc3cc(N=[N+]=[N-])ccc32)CC1
inactive: [1] 14.5 µM | [2] 14.2 µM | [3] 18.1 µM | [4] 8.87 µM | [5] 15 µM | [6] 15.2 µM | [7] 13.5 µM | [8] 14.9 µM | [9] 13.8 µM | [10] 15.6 µM | [11] 17.1 µM | [12] 17.6 µM | [13] 12.8 µM | [14] 13.7 µM | [15] 15.4 µM | [16] 9.1 µM | [18] 13 µM | [19] 3.65 µM | [20] 17.4 µM

O=C1C/C(=C\O)C(=O)c2ccccc2N1
inactive: [1] > 100 µM | [2] > 100 µM | [3] > 100 µM | [4] > 100 µM | [5] > 100 µM | [6] > 100 µM | [7] > 100 µM | [8] > 100 µM | [9] > 100 µM | [10] > 100 µM | [11] > 100 µM | [12] > 100 µM | [13] > 100 µM | [14] > 100 µM | [15] > 100 µM | [16] > 100 µM | [17] > 100 µM | [19] 61.8 µM | [20] > 100 µM

CNc1ccccc1S(=O)(=O)c1ccccc1[N+](=O)[O-]
inactive: [1] 43.5 µM | [2] > 100 µM | [3] > 100 µM | [4] 40 µM | [5] 40.2 µM | [6] > 100 µM | [7] > 100 µM | [8] 53 µM | [9] > 100 µM | [10] 38.2 µM | [11] 99.8 µM | [12] 65.6 µM | [13] 68.4 µM | [14] > 100 µM | [15] > 10 µM | [16] > 100 µM | [17] > 100 µM | [18] 52.4 µM | [19] 71.1 µM | [20] > 100 µM

CCCC(=O)OCC1OC(n2cc(F)c(=O)[nH]c2=O)C(F)C1O (stereo unspecified)
inactive: [1] 2.24 µM | [2] 24.5 µM | [3] 5.5 µM | [4] > 100 µM | [5] 99.3 µM | [6] > 76.7 µM | [7] > 100 µM | [8] 11.4 µM | [9] 38.1 µM | [10] 61.5 µM | [11] > 80 µM | [12] 99.3 µM | [13] 31 µM | [14] > 100 µM | [15] > 38.5 µM | [16] > 100 µM | [17] > 74 µM | [18] > 55 µM | [19] > 100 µM | [20] > 100 µM

COc1ccc(C(=C2C(=O)OC(=O)C2=C(C)C)c2ccc(OC)cc2)cc1
inactive: [2] > 100 µM | [3] > 100 µM | [4] 31.2 µM | [5] 95.5 µM | [6] 54 µM | [7] 29.2 µM | [8] 34.4 µM | [9] > 100 µM | [10] > 100 µM | [11] 92 µM | [12] > 100 µM | [13] 22 µM | [14] 79.1 µM | [15] 47.4 µM | [16] > 100 µM | [17] > 100 µM | [18] > 100 µM | [19] > 100 µM | [20] > 100 µM

C/C(=C\COP(=O)(O)CP(=O)(O)O)CC/C=C(\C)CNc1ccccc1
inactive: [1] > 100 µM | [2] > 100 µM | [3] > 100 µM | [4] > 100 µM | [5] > 100 µM | [6] > 100 µM | [7] > 100 µM | [8] > 100 µM | [9] > 100 µM | [10] > 100 µM | [12] > 100 µM | [13] > 100 µM | [14] > 100 µM | [15] > 100 µM | [16] > 100 µM | [17] > 100 µM | [18] > 100 µM | [19] > 100 µM | [20] > 100 µM

CC(NNC(=O)c1cc[n+]([BH2-]C#N)cc1)C(F)(F)F (stereo unspecified)
inactive: [1] > 100 µM | [2] > 100 µM | [3] > 100 µM | [4] > 100 µM | [5] > 100 µM | [6] > 100 µM | [7] > 100 µM | [8] > 100 µM | [9] > 100 µM | [10] > 100 µM | [11] > 100 µM | [12] > 100 µM | [13] > 100 µM | [14] > 100 µM | [15] > 100 µM | [16] > 100 µM | [17] > 100 µM | [18] > 100 µM | [19] > 100 µM | [20] > 100 µM

CC1(C)CC[C@]2(C(=O)O)CC[C@]3(C)C(=CC[C@@H]4[C@@]5(C)C[C@H](O)[C@H](O)[C@@](C)(C(=O)O)[C@@H]5CC[C@]43C)[C@@H]2C1
inactive: [1] > 100 µM | [2] > 100 µM | [3] > 100 µM | [4] > 31.6 µM | [5] > 100 µM | [6] > 89.3 µM | [7] > 79.1 µM | [8] > 100 µM | [9] > 100 µM | [10] > 100 µM | [11] > 100 µM | [12] > 90.8 µM | [13] > 100 µM | [14] > 100 µM | [15] > 100 µM | [16] > 100 µM | [17] > 100 µM | [18] > 100 µM | [19] > 100 µM | [20] > 100 µM

CN(C)Cc1cc(C(=O)/C=C/c2ccccc2)cc(CN(C)C)c1O
inactive: [1] 19.4 µM | [2] 17.8 µM | [3] 33 µM | [4] 15.5 µM | [5] 36.1 µM | [6] 31.9 µM | [7] 18.6 µM | [8] 5.14 µM | [9] 21.9 µM | [10] 31.6 µM | [11] 22.6 µM | [12] 27.9 µM | [13] 18.7 µM | [14] 87.5 µM | [15] 27 µM | [16] 16.5 µM | [18] 24.9 µM | [19] 30.8 µM | [20] 37.3 µM
